Laboratory results taken from patent US9908868B2, “Isoindolinone compounds as GPR119 modulators for the treatment of diabetes, obesity, dyslipidemia and related disorders” (SANOFI, priority 2014, dated 2018).

molecular target: T1, human GPR119 (Homo sapiens, UniProt Q8TDV5); test: Functional cellular assay measuring GPR119-mediated cAMP release (HTRF) in HEK-293 cells stably expressing recombinant human GPR119; type: cell-based; conditions: cAMP response, cell line expressing human GPR119, 30 minutes at room temperature
T1 construct: expressed in transfected cells
T1 sequence (Q8TDV5 1-335): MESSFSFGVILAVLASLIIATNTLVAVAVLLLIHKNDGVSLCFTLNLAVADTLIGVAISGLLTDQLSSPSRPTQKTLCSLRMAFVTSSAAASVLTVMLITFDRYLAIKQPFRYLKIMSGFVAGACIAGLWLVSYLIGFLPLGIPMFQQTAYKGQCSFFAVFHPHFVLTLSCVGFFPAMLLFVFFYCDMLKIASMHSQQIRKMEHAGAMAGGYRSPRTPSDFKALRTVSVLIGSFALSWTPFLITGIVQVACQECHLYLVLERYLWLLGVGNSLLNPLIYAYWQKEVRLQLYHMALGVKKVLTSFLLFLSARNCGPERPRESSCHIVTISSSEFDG
Method: Functional Cellular Assays Measuring GPR119-Mediated cAMP Release
Compounds of the invention, which are agonists of GPR119, were characterized by functional assays measuring the cAMP response of HEK-293 cell lines stably expressing recombinant GPR119 from man, mouse or rat, or by using a hamster cell line HIT-T15 expressing GPR119 endogenously. The cAMP content was determined using a kit based on homogenous time-resolved fluorescence (HTRF) from Cisbio Corp. (cat. no. 62AM4PEC). For preparation, cells were split into T175 culture flasks and grown to near confluency in medium (DMEM/10% FCS for HEK-293 cells, and F-12K medium/10% horse serum/2.5% FCS for HIT-T15 cells, respectively). Medium was then removed and cells washed with PBS lacking calcium and magnesium ions, followed by proteinase treatment with accutase (Sigma-Aldrich, cat. no. A6964). Detached cells were washed and resuspended in assay buffer (1×HBSS; 20 mM HEPES, 0.1% BSA, 2 mM IBMX) and cellular density determined. They were then diluted to 400000 cells/mL and 25 μL-aliquots dispensed to the wells of 96-well plates. For measurement, 25 μL of test compound in assay buffer was added and incubated for 30 minutes at room temperature. After addition of HTRF reagents diluted in lysis buffer, the plates were incubated for 1 hour, followed by measuring the fluorescence ratio at 665 vs. 620 nm. Potency of the agonists was quantified by determining the concentrations that caused 50% of the maximal response/activation (EC50). See Table 7 for exemplary data obtained using the cell line expressing human GPR119.

| SMILES | EC50 |
| --- | --- |
| CN(C)C(=O)C1NC(=O)c2cc(N3CC[C@@H](Oc4ccc(OCC5CC5)nc4)C3=O)ccc2N1C (single isomer, unassigned) [Example 1-41] | 2030 nM |
| C[S+]([O-])CN1Cc2ccc(N3CC[C@@H](Oc4ccc(C(=O)C5CC5)nc4)C3=O)cc2C1=O (stereo partly drawn) [Example 1-58, 6-[(3R)-3-[[6-(cyclopropanecarbonyl)-3-pyridyl]oxy]-2-oxo-pyrrolidin-1-yl]-2-(methylsulfinylmethyl)isoindolin-1-one] | 680 nM |
| CN(C)C(=O)CN1Cc2ccc(N3CC[C@@H](Oc4ccc(-c5cnco5)cc4)C3=O)cc2C1=O [Example 2-37, N,N-dimethyl-2-[6-[(3R)-3-(4-oxazol-5-ylphenoxy)-2-oxo-pyrrolidin-1-yl]-1-oxo-isoindolin-2-yl]acetamide] | 862 nM |
| CN(C)C(=O)CN1Cc2ccc(N3CC[C@@H](Oc4ccc(C(=O)CCC5CC5)nc4)C3=O)cc2C1=O [Example 2-57, 2-[6-[(3R)-3-[[6-(3-cyclopropylpropanoyl)-3-pyridyl]oxy]-2-oxo-pyrrolidin-1-yl]-1-oxo-isoindolin-2-yl]-N,N-dimethyl-acetamide] | 50 nM |
| CN(C)C(=O)CN1Cc2ccc(N3CC[C@@H](Oc4ccc(OC(F)(F)F)cc4)C3=O)cc2C1=O [Example 2-01, N,N-dimethyl-2-[1-oxo-6-[(3R)-2-oxo-3-[4-(trifluoromethoxy)phenoxy]pyrrolidin-1-yl]isoindolin-2-yl]acetamide] | 106 nM |
| Cc1cnc(-c2ccc(O[C@@H]3CCN(c4ccc5c(c4)C(=O)N(CC(=O)N(C)C)C5)C3=O)cn2)s1 [Example 2-60, N,N-dimethyl-2-[6-[(3R)-3-[[6-(5-methylthiazol-2-yl)-3-pyridyl]oxy]-2-oxo-pyrrolidin-1-yl]-1-oxo-isoindolin-2-yl]acetamide] | 97 nM |
| Cc1csc(-c2ccc(O[C@@H]3CCN(c4ccc5c(c4)C(=O)N(CC(=O)N(C)C)C5)C3=O)cc2)n1 [Example 2-31, N,N-dimethyl-2-[6-[(3R)-3-[4-(4-methylthiazol-2-yl)phenoxy]-2-oxo-pyrrolidin-1-yl]-1-oxo-isoindolin-2-yl]acetamide] | 343 nM |
| CC(C)(C)N1Cc2c(F)cc(N3CC[C@@H](Oc4ccc(OCC5CC5)nc4)C3=O)cc2C1=O [Example 1-33, 2-tert-butyl-6-[(3R)-3-[[6-(cyclopropylmethoxy)-3-pyridyl]oxy]-2-oxo-pyrrolidin-1-yl]-4-fluoro-isoindolin-1-one] | 8510 nM |
| CS(=O)(=O)CN1Cc2ccc(N3CC[C@@H](Oc4ccc(Oc5ccc(F)cc5)nc4)C3=O)cc2C1=O [Example 1-53, 6-[(3R)-3-[[6-(4-fluorophenoxy)-3-pyridyl]oxy]-2-oxo-pyrrolidin-1-yl]-2-(methylsulfonylmethyl)isoindolin-1-one] | 98 nM |
| C[S+]([O-])CN1Cc2ccc(N3CC[C@@H](Oc4ccc(Oc5ccc(F)cc5)nc4)C3=O)cc2C1=O (stereo partly drawn) [Example 1-50, 6-[(3R)-3-[[6-(4-fluorophenoxy)-3-pyridyl]oxy]-2-oxo-pyrrolidin-1-yl]-2-(methylsulfinylmethyl)isoindolin-1-one] | 64 nM |
| O=C(O)CN1Cc2ccc(N3CC[C@@H](Oc4ccc(OCC5CC5)nc4)C3=O)cc2C1=O [Example 3-02, 2-[6-[(3R)-3-[[6-(cyclopropylmethoxy)-3-pyridyl]oxy]-2-oxo-pyrrolidin-1-yl]-1-oxo-isoindolin-2-yl]acetic acid] | 443 nM |
| CN(C)C(=O)CN1Cc2ccc(N3CC[C@@H](Oc4ccc(OCCC5CC5)nc4)C3=O)cc2C1=O [Example 1-38, 2-[6-[(3R)-3-[[6-(2-cyclopropylethoxy)-3-pyridyl]oxy]-2-oxo-pyrrolidin-1-yl]-1-oxo-isoindolin-2-yl]-N,N-dimethyl-acetamide] | 35 nM |
| CN(C)C(=O)CN1Cc2c(F)cc(N3CC[C@@H](Oc4ccc(OC5CC5)nc4)C3=O)cc2C1=O [Example 1-21, 2-[6-[(3R)-3-[[6-(cyclopropoxy)-3-pyridyl]oxy]-2-oxo-pyrrolidin-1-yl]-4-fluoro-1-oxo-isoindolin-2-yl]-N,N-dimethyl-acetamide] | 346 nM |
| O=C1[C@H](Oc2ccc(OCC3CC3)nc2)CCN1c1ccc2[nH][nH]c(=O)c2c1 [Example 1-24, 5-[(3R)-3-[[6-(cyclopropylmethoxy)-3-pyridyl]oxy]-2-oxo-pyrrolidin-1-yl]-1,2-dihydroindazol-3-one] | 14300 nM |
| CN(C)C(=O)CN1Cc2ccc(N3CC[C@@H](Oc4ccc(C(=O)CC5CC5)cc4)C3=O)cc2C1=O [Example 2-21, 2-[6-[(3R)-3-[4-(2-cyclopropylacetyl)phenoxy]-2-oxo-pyrrolidin-1-yl]-1-oxo-isoindolin-2-yl]-N,N-dimethyl-acetamide] | 72 nM |
| CC(=O)N1CCN(c2ccc(O[C@@H]3CCN(c4ccc5c(c4)C(=O)N(CC(=O)N(C)C)C5)C3=O)cc2)CC1 [Example 2-26, 2-[6-[(3R)-3-[4-(4-acetylpiperazin-1-yl)phenoxy]-2-oxo-pyrrolidin-1-yl]-1-oxo-isoindolin-2-yl]-N,N-dimethyl-acetamide] | 1060 nM |
| COC(=O)CN1C(=O)c2cc(N3CC[C@@H](Oc4ccc(OCC5CC5)nc4)C3=O)ccc2C1C (stereo partly drawn) [Example 1-15, methyl 2-[5-[(3R)-3-[[6-(cyclopropylmethoxy)-3-pyridyl]oxy]-2-oxo-pyrrolidin-1-yl]-1-methyl-3-oxo-isoindolin-2-yl]acetate] | 221 nM |
| COC(=O)C(C)N1Cc2ccc(N3CC[C@@H](Oc4ccc(OCC5CC5)nc4)C3=O)cc2C1=O (stereo partly drawn) [Example 1-04, methyl 2-[6-[(3R)-3-[[6-(cyclopropylmethoxy)-3-pyridyl]oxy]-2-oxo-pyrrolidin-1-yl]-1-oxo-isoindolin-2-yl]propanoate] | 540 nM |
| Cn1nnc(N2Cc3ccc(N4CC[C@@H](Oc5ccc(OCC6CC6)nc5)C4=O)cc3C2=O)n1 [Example 1-10, 6-[(3R)-3-[[6-(cyclopropylmethoxy)-3-pyridyl]oxy]-2-oxo-pyrrolidin-1-yl]-2-(2-methyltetrazol-5-yl)isoindolin-1-one] | 267 nM |
| CN(C)C(=O)CN1Cc2ccc(N3CC[C@@H](Oc4ccc(Oc5ccc(F)cc5)nc4)C3=O)cc2C1=O [Example 2-14, 2-[6-[(3R)-3-[[6-(4-fluorophenoxy)-3-pyridyl]oxy]-2-oxo-pyrrolidin-1-yl]-1-oxo-isoindolin-2-yl]-N,N-dimethyl-acetamide] | 85 nM |

Continued, values first:

| EC50 | SMILES |
| --- | --- |
| 88 nM | O=C(CN1Cc2c(F)cc(N3CC[C@@H](Oc4ccc(OCC5CC5)nc4)C3=O)cc2C1=O)N1CCC(O)CC1 [Example 4-22, 6-[(3R)-3-[[6-(cyclopropylmethoxy)-3-pyridyl]oxy]-2-oxo-pyrrolidin-1-yl]-4-fluoro-2-[2-(4-hydroxy-1-piperidyl)-2-oxo-ethyl]isoindolin-1-one] |
| 249 nM | O=C(CN1Cc2ccc(N3CC[C@@H](Oc4ccc(OCC5CC5)nc4)C3=O)cc2C1=O)NCCO [Example 4-05, 2-[6-[(3R)-3-[[6-(cyclopropylmethoxy)-3-pyridyl]oxy]-2-oxo-pyrrolidin-1-yl]-1-oxo-isoindolin-2-yl]-N-(2-hydroxyethyl)acetamide] |
| 67 nM | CCOc1ccc(O[C@@H]2CCN(c3cc(F)c4c(c3)C(=O)N(CC#N)C4)C2=O)cn1 [Example 5-01, 2-[6-[(3R)-3-[(6-ethoxy-3-pyridyl)oxy]-2-oxo-pyrrolidin-1-yl]-4-fluoro-1-oxo-isoindolin-2-yl]acetonitrile] |
| 232 nM | CC(C)NC(=O)CN1Cc2ccc(N3CC[C@@H](Oc4ccc(OCC(F)(F)F)nc4)C3=O)cc2C1=O [Example 4-37, N-isopropyl-2-[1-oxo-6-[(3R)-2-oxo-3-[[6-(2,2,2-trifluoroethoxy)-3-pyridyl]oxy]pyrrolidin-1-yl]isoindolin-2-yl]acetamide] |
| 126 nM | CN(C)C(=O)CN1Cc2c(F)cc(N3CC[C@@H](Oc4ccc(OCC(C)(C)C)nc4)C3=O)cc2C1=O [Example 6-02, 2-[6-[(3R)-3-[[6-(2,2-dimethylpropoxy)-3-pyridyl]oxy]-2-oxo-pyrrolidin-1-yl]-4-fluoro-1-oxo-isoindolin-2-yl]-N,N-dimethyl-acetamide] |
| 49 nM | CNC(=O)CN1Cc2c(F)cc(N3CC[C@@H](Oc4ccc(OCCC5CC5)nc4)C3=O)cc2C1=O [Example 4-28, 2-[6-[(3R)-3-[[6-(2-cyclopropylethoxy)-3-pyridyl]oxy]-2-oxo-pyrrolidin-1-yl]-4-fluoro-1-oxo-isoindolin-2-yl]-N-methyl-acetamide] |
| 2530 nM | CC1(CN2Cc3c(F)cc(N4CC[C@@H](Oc5ccc(OCCC6CC6)nc5)C4=O)cc3C2=O)COC1 [Example 5-03, 6-[(3R)-3-[[6-(2-cyclopropylethoxy)-3-pyridyl]oxy]-2-oxo-pyrrolidin-1-yl]-4-fluoro-2-[(3-methyloxetan-3-yl)methyl]isoindolin-1-one] |
